# Results published in the kinase profiling compilation of Christmann-Franck et al. (2016).
# How the values were obtained:
# Assay in all cases: radiometric filter-binding kinase assay, Kinase HotSpot
# Settings in all cases: compound 0.5 µM; ATP 10 µM
# AKT1 (human) = AKT1 (human) (UniProt P31749)
# AKT3 (human) = AKT3 (human) (UniProt Q9Y243)
# BRSK2 (human) = BRSK2 (human) (UniProt Q8IWQ3)
# CAMK2D (human) = CAMK2D (human) (UniProt Q13557)
# CDC42BPA (human) = CDC42BPA (human) (UniProt Q5VT25)
# CDK1 CCNB1 (human) = CDK1 CCNB1 (human) (UniProt P06493+P14635)
# CDK1 CCNB1 (human), sequence (P06493 whole entry, looked up): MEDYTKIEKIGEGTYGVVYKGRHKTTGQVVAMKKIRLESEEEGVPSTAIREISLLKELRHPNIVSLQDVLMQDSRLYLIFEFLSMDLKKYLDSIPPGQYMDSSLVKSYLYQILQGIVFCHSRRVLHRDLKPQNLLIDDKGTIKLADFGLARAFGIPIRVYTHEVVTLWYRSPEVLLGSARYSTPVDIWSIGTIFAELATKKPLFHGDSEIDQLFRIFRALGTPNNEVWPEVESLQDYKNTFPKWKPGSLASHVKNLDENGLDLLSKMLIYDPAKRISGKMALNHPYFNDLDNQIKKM
# CDK1 CCNB1 (human), sequence (P14635 whole entry, looked up): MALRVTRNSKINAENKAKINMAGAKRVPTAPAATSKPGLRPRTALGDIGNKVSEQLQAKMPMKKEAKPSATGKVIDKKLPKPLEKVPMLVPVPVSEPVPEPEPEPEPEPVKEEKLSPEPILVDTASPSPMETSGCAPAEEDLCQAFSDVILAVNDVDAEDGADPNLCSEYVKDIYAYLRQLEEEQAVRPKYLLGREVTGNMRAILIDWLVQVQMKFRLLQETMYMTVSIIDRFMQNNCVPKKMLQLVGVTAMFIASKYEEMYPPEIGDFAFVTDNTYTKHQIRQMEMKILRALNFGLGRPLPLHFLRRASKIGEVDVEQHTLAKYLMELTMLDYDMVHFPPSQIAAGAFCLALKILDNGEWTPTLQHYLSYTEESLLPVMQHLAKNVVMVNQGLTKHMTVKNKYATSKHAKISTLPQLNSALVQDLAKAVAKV
# CDK2 CCNA2 (human) = CDK2 CCNA2 (human) (UniProt P24941+P20248)
# CLK4 (human) = CLK4 (human) (UniProt Q9HAZ1)
# CSNK1D (human) = CSNK1D (human) (UniProt P48730)
# CSNK1D (human), sequence (P48730 whole entry, looked up): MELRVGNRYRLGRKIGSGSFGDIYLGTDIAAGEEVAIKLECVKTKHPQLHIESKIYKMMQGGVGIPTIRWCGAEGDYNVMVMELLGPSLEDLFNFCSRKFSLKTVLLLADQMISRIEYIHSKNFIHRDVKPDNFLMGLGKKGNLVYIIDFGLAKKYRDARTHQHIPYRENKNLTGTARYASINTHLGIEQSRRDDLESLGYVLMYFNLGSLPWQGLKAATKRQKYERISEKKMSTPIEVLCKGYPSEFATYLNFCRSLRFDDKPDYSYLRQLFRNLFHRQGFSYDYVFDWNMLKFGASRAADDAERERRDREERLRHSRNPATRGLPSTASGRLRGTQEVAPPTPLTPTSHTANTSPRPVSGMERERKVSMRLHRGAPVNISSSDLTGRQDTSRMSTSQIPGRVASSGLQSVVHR
# DAPK2 (human) = DAPK2 (human) (UniProt Q9UIK4)
# DAPK2 (human), sequence (Q9UIK4 whole entry, looked up): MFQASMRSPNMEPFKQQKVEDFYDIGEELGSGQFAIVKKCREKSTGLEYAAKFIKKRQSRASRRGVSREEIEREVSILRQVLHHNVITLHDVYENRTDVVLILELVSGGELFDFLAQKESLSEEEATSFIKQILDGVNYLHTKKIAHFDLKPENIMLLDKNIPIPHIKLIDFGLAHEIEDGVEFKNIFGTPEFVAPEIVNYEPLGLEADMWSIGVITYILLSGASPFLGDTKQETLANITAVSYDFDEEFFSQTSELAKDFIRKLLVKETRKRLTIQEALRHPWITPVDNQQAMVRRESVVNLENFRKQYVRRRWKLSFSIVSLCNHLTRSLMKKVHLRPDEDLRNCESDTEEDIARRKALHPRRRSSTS
# EPHA3 (human) = EPHA3 (human) (UniProt P29320)
# EPHA3 (human), sequence (P29320 whole entry, looked up): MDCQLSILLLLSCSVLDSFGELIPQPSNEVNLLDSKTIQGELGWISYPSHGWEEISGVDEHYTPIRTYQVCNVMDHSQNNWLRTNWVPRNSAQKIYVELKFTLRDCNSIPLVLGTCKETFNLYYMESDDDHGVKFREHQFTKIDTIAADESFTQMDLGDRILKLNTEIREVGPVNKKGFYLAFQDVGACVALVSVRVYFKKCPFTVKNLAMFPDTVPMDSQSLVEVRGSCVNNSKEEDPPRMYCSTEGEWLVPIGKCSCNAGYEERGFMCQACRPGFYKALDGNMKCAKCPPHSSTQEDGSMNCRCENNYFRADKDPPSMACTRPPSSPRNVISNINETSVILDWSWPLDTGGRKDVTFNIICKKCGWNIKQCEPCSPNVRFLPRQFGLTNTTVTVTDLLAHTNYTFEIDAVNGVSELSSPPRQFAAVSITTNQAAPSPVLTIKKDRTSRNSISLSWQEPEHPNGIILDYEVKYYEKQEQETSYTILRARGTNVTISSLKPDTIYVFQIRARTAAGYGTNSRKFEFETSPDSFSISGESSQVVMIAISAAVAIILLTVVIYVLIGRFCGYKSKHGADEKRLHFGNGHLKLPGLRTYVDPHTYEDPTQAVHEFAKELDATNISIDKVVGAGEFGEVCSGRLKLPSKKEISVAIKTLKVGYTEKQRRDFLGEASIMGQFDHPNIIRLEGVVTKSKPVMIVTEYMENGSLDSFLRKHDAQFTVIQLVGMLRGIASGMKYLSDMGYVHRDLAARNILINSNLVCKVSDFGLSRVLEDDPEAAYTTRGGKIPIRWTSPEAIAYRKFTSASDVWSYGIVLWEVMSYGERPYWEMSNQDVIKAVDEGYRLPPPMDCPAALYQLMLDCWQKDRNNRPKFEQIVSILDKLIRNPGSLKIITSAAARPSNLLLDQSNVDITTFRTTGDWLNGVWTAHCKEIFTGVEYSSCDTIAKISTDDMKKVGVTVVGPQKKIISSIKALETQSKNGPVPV
# EPHA4 (human) = EPHA4 (human) (UniProt P54764)
# FGFR1 (human) = FGFR1 (human) (UniProt P11362)
# [1] = system: FLT4 (human), P35916 [Q890H]
# GSG2 (human) = GSG2 (human) (UniProt Q8TF76)
# HIPK1 (human) = HIPK1 (human) (UniProt Q86Z02)
# IGF1R (human) = IGF1R (human) (UniProt P08069)
# INSR (human) = INSR (human) (UniProt P06213)
# ITK (human) = ITK (human) (UniProt Q08881)
# [2] = molecular target: JAK1 JH1 catalytic (human) (UniProt P23458)
# MAP2K1 (human) = MAP2K1 (human) (UniProt Q02750)
# MAP2K1 (human), sequence (Q02750 whole entry, looked up): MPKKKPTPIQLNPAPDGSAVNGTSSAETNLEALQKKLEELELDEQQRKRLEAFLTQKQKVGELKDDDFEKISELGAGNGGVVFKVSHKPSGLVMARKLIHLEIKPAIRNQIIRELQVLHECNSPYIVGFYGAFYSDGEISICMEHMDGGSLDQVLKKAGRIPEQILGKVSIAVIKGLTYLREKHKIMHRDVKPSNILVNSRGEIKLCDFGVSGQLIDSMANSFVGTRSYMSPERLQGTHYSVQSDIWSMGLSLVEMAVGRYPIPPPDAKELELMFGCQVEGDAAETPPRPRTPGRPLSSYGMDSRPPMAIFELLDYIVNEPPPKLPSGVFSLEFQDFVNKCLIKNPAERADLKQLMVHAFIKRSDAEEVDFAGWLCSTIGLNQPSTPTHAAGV
# MAP3K10 (human) = MAP3K10 (human) (UniProt Q02779)
# MAP3K11 (human) = MAP3K11 (human) (UniProt Q16584)
# MAPK11 (human) = MAPK11 (human) (UniProt Q15759)
# MAPK11 (human), sequence (Q15759 whole entry, looked up): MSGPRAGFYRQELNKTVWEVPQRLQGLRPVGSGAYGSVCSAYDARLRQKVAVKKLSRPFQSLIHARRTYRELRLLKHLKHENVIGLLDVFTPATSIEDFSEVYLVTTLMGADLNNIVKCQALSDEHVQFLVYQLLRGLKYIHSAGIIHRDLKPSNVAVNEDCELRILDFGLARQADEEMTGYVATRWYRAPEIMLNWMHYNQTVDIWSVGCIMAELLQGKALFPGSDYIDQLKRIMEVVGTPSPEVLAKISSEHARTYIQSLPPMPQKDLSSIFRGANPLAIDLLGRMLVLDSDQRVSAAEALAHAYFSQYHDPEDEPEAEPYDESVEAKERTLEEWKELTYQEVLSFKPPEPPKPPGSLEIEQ
# MAPK8 (human) = MAPK8 (human) (UniProt P45983)
# MAPK8 (human), sequence (P45983 whole entry, looked up): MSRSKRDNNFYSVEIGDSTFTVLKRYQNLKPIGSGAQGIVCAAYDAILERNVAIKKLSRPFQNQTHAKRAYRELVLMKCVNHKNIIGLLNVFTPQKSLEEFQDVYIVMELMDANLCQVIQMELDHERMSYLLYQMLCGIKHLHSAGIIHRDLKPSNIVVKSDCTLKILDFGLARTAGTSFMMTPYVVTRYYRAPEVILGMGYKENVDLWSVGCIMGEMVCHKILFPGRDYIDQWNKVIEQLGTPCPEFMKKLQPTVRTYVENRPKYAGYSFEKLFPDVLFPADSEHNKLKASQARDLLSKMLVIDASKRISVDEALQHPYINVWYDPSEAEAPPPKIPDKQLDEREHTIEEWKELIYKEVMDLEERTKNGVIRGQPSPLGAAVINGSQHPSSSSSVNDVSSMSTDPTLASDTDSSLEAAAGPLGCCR
# MAPKAPK2 (human) = MAPKAPK2 (human) (UniProt P49137)
# MAPKAPK5 (human) = MAPKAPK5 (human) (UniProt Q8IW41)
# MARK1 (human) = MARK1 (human) (UniProt Q9P0L2)
# MINK1 (human) = MINK1 (human) (UniProt Q8N4C8)
# MINK1 (human), sequence (Q8N4C8 whole entry, looked up): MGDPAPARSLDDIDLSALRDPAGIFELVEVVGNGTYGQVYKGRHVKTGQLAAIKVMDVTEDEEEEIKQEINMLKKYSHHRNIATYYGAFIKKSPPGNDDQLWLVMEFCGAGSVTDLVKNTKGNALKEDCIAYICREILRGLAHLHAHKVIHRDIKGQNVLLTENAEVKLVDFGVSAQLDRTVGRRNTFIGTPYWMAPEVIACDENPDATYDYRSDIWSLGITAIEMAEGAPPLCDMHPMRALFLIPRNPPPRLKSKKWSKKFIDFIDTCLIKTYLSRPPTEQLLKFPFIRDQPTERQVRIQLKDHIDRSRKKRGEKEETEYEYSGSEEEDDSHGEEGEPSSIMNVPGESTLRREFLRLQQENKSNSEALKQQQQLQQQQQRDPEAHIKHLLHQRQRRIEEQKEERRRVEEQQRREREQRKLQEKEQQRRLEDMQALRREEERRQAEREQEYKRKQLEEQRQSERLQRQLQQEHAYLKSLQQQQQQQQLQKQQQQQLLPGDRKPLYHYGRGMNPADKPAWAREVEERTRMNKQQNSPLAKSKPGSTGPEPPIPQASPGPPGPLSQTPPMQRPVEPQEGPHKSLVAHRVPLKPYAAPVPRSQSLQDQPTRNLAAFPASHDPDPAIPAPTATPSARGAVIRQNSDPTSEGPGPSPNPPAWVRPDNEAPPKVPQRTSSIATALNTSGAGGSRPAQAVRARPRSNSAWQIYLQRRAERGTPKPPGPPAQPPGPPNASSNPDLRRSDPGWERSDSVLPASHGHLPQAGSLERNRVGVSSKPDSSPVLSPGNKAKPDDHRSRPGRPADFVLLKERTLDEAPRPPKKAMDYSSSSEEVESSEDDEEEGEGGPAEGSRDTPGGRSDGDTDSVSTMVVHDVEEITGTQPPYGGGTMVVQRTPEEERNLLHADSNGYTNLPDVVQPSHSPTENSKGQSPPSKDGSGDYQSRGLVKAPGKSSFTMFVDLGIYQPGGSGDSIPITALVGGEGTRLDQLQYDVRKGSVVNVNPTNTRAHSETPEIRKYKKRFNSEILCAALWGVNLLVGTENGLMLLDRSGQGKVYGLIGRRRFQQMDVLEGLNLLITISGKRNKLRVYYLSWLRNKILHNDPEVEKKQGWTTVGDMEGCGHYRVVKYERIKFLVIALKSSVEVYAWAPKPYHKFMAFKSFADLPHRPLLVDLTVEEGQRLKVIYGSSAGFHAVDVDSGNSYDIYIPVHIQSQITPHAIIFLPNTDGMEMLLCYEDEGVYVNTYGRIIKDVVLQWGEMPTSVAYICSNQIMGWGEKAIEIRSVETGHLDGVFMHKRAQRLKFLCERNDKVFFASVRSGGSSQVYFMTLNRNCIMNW
# NEK9 (human) = NEK9 (human) (UniProt Q8TD19)
# PAK1 (human) = PAK1 (human) (UniProt Q13153)
# PDPK1 (human) = PDPK1 (human) (UniProt O15530)
# PHKG1 (human) = PHKG1 (human) (UniProt Q16816)
# PKN2 (human) = PKN2 (human) (UniProt Q16513)
# RPS6KA5 KD2 (human) = RPS6KA5 KD2 (human) (UniProt O75582)
# SRC (human) = SRC (human) (UniProt P12931)
# TXK (human) = TXK (human) (UniProt P42681)
Compound,residual activity (AKT3 (human)),residual activity (BRSK2 (human)),residual activity (CAMK2D (human)),residual activity (CDC42BPA (human)),residual activity (CDK1 CCNB1 (human)),residual activity (CDK2 CCNA2 (human)),residual activity (CLK4 (human)),residual activity (CSNK1D (human)),residual activity (DAPK2 (human)),residual activity (EPHA3 (human)),residual activity (EPHA4 (human)),residual activity (FGFR1 (human)),residual activity [1],residual activity (GSG2 (human)),residual activity (HIPK1 (human)),residual activity (IGF1R (human)),residual activity (INSR (human)),residual activity (ITK (human)),residual activity [2],residual activity (MAP2K1 (human)),other results
COc1ccc(C(=O)Nc2sc3c(c2C(N)=O)CCCC3)cc1OC,102%,97.9%,104%,81.8%,94.3%,103%,86.8%,103%,106%,108%,104%,94.8%,110%,82.8%,90.2%,97.7%,93.2%,99.6%,104%,99.1%,residual activity (AKT1 (human)): 99.7%; residual activity (MAP3K10 (human)): 96.6%; residual activity (MAP3K11 (human)): 96.8%; residual activity (MAPK11 (human)): 104%; residual activity (MAPK8 (human)): 94.7%; residual activity (MAPKAPK2 (human)): 104%; residual activity (MAPKAPK5 (human)): 86.4%; residual activity (MARK1 (human)): 97.9%; residual activity (MINK1 (human)): 85%; residual activity (NEK9 (human)): 94.6%; residual activity (PAK1 (human)): 94%; residual activity (PDPK1 (human)): 87.8%; residual activity (PHKG1 (human)): 94.3%; residual activity (PKN2 (human)): 98.5%; residual activity (RPS6KA5 KD2 (human)): 105%; residual activity (SRC (human)): 100%; residual activity (TXK (human)): 96.2%
COc1ccc2c(c1)c(C1=C(c3c[nH]c4ccccc34)C(=O)NC1=O)cn2CCCN(C)C,63.7%,61.3%,74.8%,89.2%,94.4%,112%,32.8%,92%,81.1%,94.1%,94.5%,59%,23.6%,93.5%,77.7%,115%,94.1%,70.4%,100%,85%,residual activity (AKT1 (human)): 99%; residual activity (MAP3K10 (human)): 83.4%; residual activity (MAP3K11 (human)): 75.6%; residual activity (MAPK11 (human)): 96.7%; residual activity (MAPK8 (human)): 80%; residual activity (MAPKAPK2 (human)): 99.7%; residual activity (MAPKAPK5 (human)): 98.1%; residual activity (MARK1 (human)): 93.2%; residual activity (MINK1 (human)): 78.6%; residual activity (NEK9 (human)): 90.3%; residual activity (PAK1 (human)): 87.4%; residual activity (PDPK1 (human)): 76.7%; residual activity (PHKG1 (human)): 66.4%; residual activity (PKN2 (human)): 95%; residual activity (RPS6KA5 KD2 (human)): 61.3%; residual activity (SRC (human)): 79.8%; residual activity (TXK (human)): 82.8%
CCCCc1c(-c2ccc(OC)cc2)[nH]c2nccnc12,102%,90.8%,93.3%,99.7%,47.7%,36.3%,73.2%,94.7%,101%,91.9%,85.5%,83.3%,81.1%,80%,109%,83.9%,97.6%,99.4%,67.1%,88.7%,residual activity (AKT1 (human)): 113%; residual activity (MAP3K10 (human)): 82.7%; residual activity (MAP3K11 (human)): 39.4%; residual activity (MAPK11 (human)): 100%; residual activity (MAPK8 (human)): 74.5%; residual activity (MAPKAPK2 (human)): 90.2%; residual activity (MAPKAPK5 (human)): 95.3%; residual activity (MARK1 (human)): 92.9%; residual activity (MINK1 (human)): 84.4%; residual activity (NEK9 (human)): 106%; residual activity (PAK1 (human)): 83.7%; residual activity (PDPK1 (human)): 102%; residual activity (PHKG1 (human)): 89.4%; residual activity (PKN2 (human)): 88.6%; residual activity (RPS6KA5 KD2 (human)): 104%; residual activity (SRC (human)): 58.8%; residual activity (TXK (human)): 72.7%
COc1cc2ncnc(Nc3ccc(OCc4ccccc4)cc3)c2cc1OC,103%,98.7%,95.8%,101%,89.9%,100%,99.5%,96.6%,99.9%,98.1%,98.5%,91.3%,98.9%,86.2%,104%,102%,100%,96.2%,101%,94.7%,residual activity (AKT1 (human)): 103%; residual activity (MAP3K10 (human)): 94.9%; residual activity (MAP3K11 (human)): 92.2%; residual activity (MAPK11 (human)): 96.9%; residual activity (MAPK8 (human)): 102%; residual activity (MAPKAPK2 (human)): 106%; residual activity (MAPKAPK5 (human)): 100%; residual activity (MARK1 (human)): 103%; residual activity (MINK1 (human)): 94.3%; residual activity (NEK9 (human)): 104%; residual activity (PAK1 (human)): 93.2%; residual activity (PDPK1 (human)): 103%; residual activity (PHKG1 (human)): 100%; residual activity (PKN2 (human)): 94.1%; residual activity (RPS6KA5 KD2 (human)): 103%; residual activity (SRC (human)): 102%; residual activity (TXK (human)): 99.4%
NC(=O)c1cccc(-c2cc(Nc3ccc(OC(F)(F)F)cc3)ncn2)c1,93.5%,93%,90.8%,99.3%,92.5%,96.5%,97.8%,99.1%,99.1%,97.5%,94.4%,96.9%,98.5%,105%,102%,91%,105%,95.3%,98.9%,95.5%,residual activity (MAP3K10 (human)): 95.4%; residual activity (MAP3K11 (human)): 99.4%; residual activity (MAPK11 (human)): 105%; residual activity (MAPK8 (human)): 90.3%; residual activity (MAPKAPK2 (human)): 97.3%; residual activity (MAPKAPK5 (human)): 94.3%; residual activity (MARK1 (human)): 94.7%; residual activity (NEK9 (human)): 93.8%; residual activity (PAK1 (human)): 93.3%; residual activity (PDPK1 (human)): 98.3%; residual activity (PHKG1 (human)): 99.2%; residual activity (PKN2 (human)): 89.8%; residual activity (RPS6KA5 KD2 (human)): 104%; residual activity (SRC (human)): 97%; residual activity (TXK (human)): 111%
